Test results reported in PMC7268545, “Development of a QPatch-Automated Electrophysiology Assay for Identifying TMEM16A Small-Molecule Inhibitors” (Assay and Drug Development Technologies, 2020).
Where two headings read alike, the source gives them in different places.

Tests used:
[1] = biological target: T1, human ANO1 channel (isoform acd) (Homo sapiens, UniProt Q5XXA6); test: QPatch-48 automated whole-cell electrophysiology, cumulative five-concentration single-addition protocol; type: cell-based
T1 construct: host or cells: HEK293T
T1 sequence (Q5XXA6 1-986): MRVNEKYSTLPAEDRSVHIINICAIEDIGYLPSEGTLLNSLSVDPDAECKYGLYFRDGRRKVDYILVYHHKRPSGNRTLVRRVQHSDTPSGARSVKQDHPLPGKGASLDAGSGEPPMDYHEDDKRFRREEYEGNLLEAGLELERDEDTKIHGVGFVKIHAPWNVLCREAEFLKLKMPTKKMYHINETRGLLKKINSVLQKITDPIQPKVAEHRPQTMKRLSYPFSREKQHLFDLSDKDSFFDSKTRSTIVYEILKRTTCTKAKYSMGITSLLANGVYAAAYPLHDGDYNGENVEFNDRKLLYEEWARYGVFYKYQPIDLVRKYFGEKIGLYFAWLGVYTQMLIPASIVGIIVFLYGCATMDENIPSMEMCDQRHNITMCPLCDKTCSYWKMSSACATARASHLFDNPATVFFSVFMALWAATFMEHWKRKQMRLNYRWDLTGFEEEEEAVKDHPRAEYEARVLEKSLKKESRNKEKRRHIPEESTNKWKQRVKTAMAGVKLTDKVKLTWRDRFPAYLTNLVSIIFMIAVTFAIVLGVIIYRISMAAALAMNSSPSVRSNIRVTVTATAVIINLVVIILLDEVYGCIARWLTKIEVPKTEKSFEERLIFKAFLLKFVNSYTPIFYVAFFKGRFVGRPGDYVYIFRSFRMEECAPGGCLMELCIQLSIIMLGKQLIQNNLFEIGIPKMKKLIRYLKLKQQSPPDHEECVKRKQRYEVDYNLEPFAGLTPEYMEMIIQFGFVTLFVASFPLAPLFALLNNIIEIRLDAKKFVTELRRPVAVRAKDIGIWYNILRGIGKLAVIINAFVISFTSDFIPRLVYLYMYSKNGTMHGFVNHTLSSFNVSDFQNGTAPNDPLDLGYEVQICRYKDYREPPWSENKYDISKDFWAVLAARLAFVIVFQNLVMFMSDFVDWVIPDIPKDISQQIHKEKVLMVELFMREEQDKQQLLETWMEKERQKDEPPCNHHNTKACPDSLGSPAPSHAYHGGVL
Experimental: HEK293T cells stably expressing the human ANO1 channel (isoform acd) were obtained from Scottish Biomedical. Cells were cultured in Sigma Minimum Essential Media containing 10% heat-inactivated fetal bovine serum, 1% penicillin/streptomycin, 1% glutamine, and […] geneticin. Cells were maintained in a 37°C, 5% CO2 environment. Cells were passaged every 3 days after they had reached ∼70% confluency and were not allowed to reach a density greater than 1–2 × 10^5 cells/cm^2 during routine culture. When subculturing, cells were rinsed once with room temperature 1 × phosphate-buffered saline (PBS; Ca^2+/Mg^2+ free), lifted with TrypLE Express, resuspended in prewarmed growth media, and counted using a hemocytometer. Cells were then plated in T150 flasks at a density of 2.9 × 10^4 cells/cm^2 to be either used in the assay or subcultured 72 h later.
On the day of the experiment, cells plated at a density of 2.9 × 10^4 cells/cm^2 72 h prior should be ∼70%–80% confluent. After cells were rinsed with prewarmed 1 × PBS (Ca^2+/Mg^2+ free), 3 mL of room temperature Detachin solution (Genlantis) was added to the flask and tilted gently two to three times to cover all the cells. Approximately 2 mL of Detachin was aspirated from the flask, leaving 1 mL on the cells, and then placed in the 37°C incubator for 5 min. Once cells had rounded up, the cells were dislodged by tapping the flask gently. The cells were then resuspended in 5 mL of warm serum-free media (EX-CELL ACF CHO Medium; Sigma; supplemented with 4 mM L-glutamine and 10 mM HEPES). A glass Pasteur pipette with a rubber bulb was then used to gently dissociate the cells from one another. Detachin will often leave cells as doublets or clumps, conditions that will disrupt seal formation on the QPatch. The cells were triturated ∼30 times and then, still using the Pasteur pipette, transferred into the QPatch Cell Hotel. This ensures that cells detach from one another leaving a suspension of single cells. A QStirrer was added to the Cell Hotel and the cell suspension was immediately placed on the QPatch device. Cells were utilized within 15 min.
Compounds were reconstituted in dimethyl sulfoxide (DMSO; Sigma) as 10 mM stock solutions. An automated dilution machine set up the microtiter plate (MTP ) by making 1:5 dilutions from a starting concentration of 30 μM. The concentration of DMSO was equal for all concentrations tested. Each MTP contained one row of a negative control (DMSO) and a positive control (benzbromarone). A total of eight compounds were run at a time. All compounds tested were produced in-house.
Whole-cell patch-clamp experiments were performed on a QPatch-48-automated electrophysiology platform (Sophion Biosciences) using the 48-channel, single-hole QPlate (resistance 2.0 ± 0.4 MΩ). The external buffer (in mM) was 140 NaCl, 4 KCl, 2 CaCl2, 1 MgCl2, 10 HEPES, 10 glucose, pH 7.4 (osmolarity = 300), and the internal buffer (in mM) was 110 CsCl, 20 TEA-Cl, 5.374 CaCl2, 1.75 MgCl2, 10 EGTA, 10 HEPES, 4 Na2ATP, pH 7.2 (osmolarity = 310). Cell positioning was set to a 5-s wait time with a positioning pressure of −60 mbar and a positioning time-out of 60 s. Resistance was set to increase 750% to ensure the success of positioning. To obtain a seal, pressure was increased to −70 mbar with an allowed pressure of −130 to −20 mbar and a holding pressure of −20 mbar. The holding potential was set to −70 mV and a 240-s time-out was set. The minimum seal resistance was set to 0.02 GΩ. To go whole cell, five 1-s suction pulses were applied starting at −180 mbar and increasing with −40 mbar increments with a pulse period of 10 s. Suction ramp and voltage zap protocols were kept standard, according to the default HEK cell settings. […] The suction ramp order of use was set to 2 with a ramp amplitude of −450 mbar and a ramp slope of 100 ms/mbar.
Once established in whole-cell configuration, cells are clamped to a holding potential (Vhold) of 0 mV.

TMEM16A = biological target: T2, TMEM16A (Homo sapiens, UniProt Q5XXA6); test: QPatch-48 assay on HEK293T-derived cell line with doxycycline-induced expression; type: cell-based; settings: 30 μM; expression induced with 10 ng/mL doxycycline
T2 construct: expressed in transfected cells; host or cells: HEK293T-derived, doxycycline-inducible
T2 sequence (Q5XXA6 1-986): T1 sequence (Q5XXA6 1-986)
Experimental: In addition, another cell line that was HEK293T-derived and induced expression of TMEM16A on addition of 10 ng/mL of doxycycline also performed well on the assay. […] These two other cell lines were run on the machine using the predefined parameters that were optimized with the original cells, including the cell preparation protocol. Therefore, it seems that this assay is easily transferable to any cell line expressing TMEM16A.

[2] = half plate (24-well format), cumulative single-addition, n = 5, read-out: average IC50 (mean ± SD)
[3] = independent experiment 3, read-out: IC50s for independent experiments 3
[4] = independent experiment 4, read-out: IC50s for independent experiments 4
[5] = independent experiment 5, read-out: IC50s for independent experiments 5

Row | IC50 ([1]; IC50s for independent experiments 1, independent experiment 1, block at +100 mV, 250 nM internal free-calcium) | IC50 ([1]; IC50s for independent experiments 2, independent experiment 2) | IC50 ([1]; full 48-well plate format (with rundown), n = 1, read-out: IC50, full 48-well plate format) | IC50 [1, 2] | IC50 [1, 3] | IC50 [1, 4] | IC50 [1, 5] | block of currents (TMEM16A) | IC50 ([1]; QPatch, 1-min incubations, read-out: concentration inhibiting 50% of channel current) | IC50 ([1]; independent experiment 1, block at +100 mV, 250 nM internal free-calcium, read-out: IC50s for independent experiments 1) | IC50 ([1]; independent experiment 2, read-out: IC50s for independent experiments 2) | Compound
1 | 3450 nM | 1510 nM | 730 nM | 2540 ± 940 nM | 1310 nM | 2300 nM | 3180 nM | fully blocked |  |  |  | CCc1oc2ccccc2c1C(=O)c1cc(Br)c(O)c(Br)c1 [Benzbromarone]
2 |  |  |  | 1600 ± 390 nM | 1050 nM | 2090 nM | 1810 nM |  | ~1000 nM | 1620 nM | 1430 nM | O=C(Nc1ccc([N+](=O)[O-])cc1Cl)c1cc(Cl)ccc1O [Niclosamide]
